The values that follow come from US8017620B2, “Dutpase inhibitors” (Medivir AB, priority 2004, dated 2011).

The target in one assay is Leishmania dUTPase (Leishmania major, UniProt O15826). Conditions: Hidalgo-Zarco and González-Pacanowska 2001; cited from earlier work.
Assay [1] addresses T1, Plasmodium falciparum dUTPase (Plasmodium falciparum, UniProt Q8II92).
T1 construct: made in house; host or cells: E. coli BL21 (DE3)
T1 sequence (Q8II92 1-173): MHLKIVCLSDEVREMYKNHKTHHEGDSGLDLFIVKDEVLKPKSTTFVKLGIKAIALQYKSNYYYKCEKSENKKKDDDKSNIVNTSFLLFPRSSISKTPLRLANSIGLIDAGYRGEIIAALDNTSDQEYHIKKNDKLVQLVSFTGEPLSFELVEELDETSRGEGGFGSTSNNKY
Briefly: Inhibition of Plasmodium falciparum dUTPase (malaria enzyme assay). Format: biochemical. The procedure:
Inhibition of Plasmodium falciparum dUTPase
2′-dUTP, was purchased from Pharmacia. MgCl2, BSA, and the pH indicator cresol red were from Sigma. The buffer N,N-bis(2-hydroxyethyl)glycine (BICINE) was obtained from USB (United States Biochemical), Ohio. All the concentrations of nucleotides were calculated spectrophotometrically (HP-8453, Hewlett Packard) at 280 nm, using the extinction coefficient (ε280 nm=1.75 ml mg^−1cm^−1). Other chemicals used in these experiments were of the highest quality available.
Conserved motifs of the human dUTPase enzyme were used as query to identify the PFdut gene in the www.tigr.org database of the Plasmodium falciparum 3D7 strain. The entire coding sequence was amplified by the PCR using as template cDNA and as primers the oligonucleotides ATG-PFdut ([…]) and TGA-PFdut ([…]) which were designed so that NdeI and BamHI restriction sites were introduced at the 5′ and 3′ ends for convenient cloning in the expression vector pET11 (Stratagene). The amplified product was cloned into pGEMT (Promega) and propagated in E. coli XL1B cells. In order to confirm the correct sequence after amplification, sequencing was performed using an Applied Biosystems Automated Sequencer, at the Analytical Services of the Instituto de Parasitología y Biomedicina “López Neyra”. These Services also supplied the oligonucleotides designed for the sequencing
Recombinant P. falciparum dUTPase was purified from E. coli BL21 (DE3) cells transformed with pET-PFdut. Pellets from a liter of culture were resuspended in a solution consisting of buffer A (20 mM MES pH 5.5, 50 mM NaCl, 1 mM DTT) plus the protease inhibitors 1 mM PMSF, 20 μg/ml leupeptin and 1 mM benzamidine. Purification was carried out in a cold room (4° C.). The soluble crude extract was obtained by sonication in a Vibra-cell (Sonics and Materials Inc. Danbury, Conn., USA) and centrifugation at 14000×g. The extract was loaded onto a phosphocellulose column (Whatman) pre-equilibrated with buffer A at a flow rate of 1 ml/min. After washing the column with 100 ml of buffer A, elution was performed using a linear NaCl gradient of 50 to 1000 mM. Peak fractions with a low concentration of contaminating protein, as judged by 15% SDS-PAGE gels, were pooled and then loaded and chromatographed on a Superdex 200 column at a flow rate of 0.5 ml/min. The column was equilibrated with buffer B (50 mM Bicine, 1 mM DTT, 10 mM MgCl2). Peak fractions were pooled and concentrated to about 5 mg/ml by ultrafiltration in a Centripep tube (Amicon) and stored at −80° C.
Nucleotide hydrolysis was monitored by mixing enzyme and substrate with a rapid kinetic accessory (Hi-Tech Scientific) attached to a spectrophotometer (Cary 50) and connected to a computer for data acquisition and storage. Protons, released through the hydrolysis of nucleotides, were neutralised by a pH indicator in a weak buffered medium with similar pKa and monitored spectrophotometrically at the absorbance peak of the basic form of the indicator. Absorbance changes were kept within 0.1 units. The indicator/buffer pair used was cresol red/BICINE ([…], pH 8, 573 nm). The measurements were performed at 25° C., and the solutions were previously degassed. […] Indicator absorbance changes corresponding to complete hydrolysis of nucleotides were recorded in the computer, and the kinetic parameters Vmax and Kmapp (or slope) were calculated by fitting the data to the integrated Michaelis-Menten equation (Segel, 1975). […]

In assay [2] the target is T2, Human recombinant dUTPase (Homo sapiens, UniProt P33316).
T2 construct: made in house; host or cells: E. coli BL21 (DE3)
T2 sequence (P33316 112-252 limits assumed): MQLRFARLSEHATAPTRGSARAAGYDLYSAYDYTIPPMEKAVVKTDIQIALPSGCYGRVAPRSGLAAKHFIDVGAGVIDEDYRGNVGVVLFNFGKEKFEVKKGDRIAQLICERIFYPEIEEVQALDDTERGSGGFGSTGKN
Description: Human dUTPase assay. Conditions: human enzyme versus Plasmodium falciparum enzyme. It counts as biochemical. The procedure: Human recombinant dUTPase was purified from E. coli BL21 (DE3) cells transformed with pETHudut (Dr. P. O. Nyman, Lund University). Purification was accomplished as described for the dUTPase above except that the last step in Superdex 200 was omitted. Likewise, conditions for enzyme assays were the same as described above except that the enzyme concentration was 50 nM.

The next assay deals with P. falciparum. Description: Malaria whole cell assay (3H-hypoxanthine incorporation). Format: cell-based. Conditions: Plasmodium falciparum cell culture; read-out: ED50 (the source's name). The procedure: Two strains of P. falciparum are used in this study: The drug sensitive NF54 (an airport strain of unknown origin) and K1 (Thailand, chloroquine and pyrimethamine resistant). The strains are maintained in RPMI-1640 medium with 0.36 mM hypoxanthine supplemented with 25 mM HEPES, 25 mM NaHC03, neomycin (100 U/ml) and Albumax^R (lipid-rich bovine serum albumin) (GIBCO, Grand Island, N.Y.) (5 g/l), together with 5% washed human A+ erythrocytes. All cultures and assays are conducted at 37° C. under an atmosphere of 4% C02, 3% 02 and 93% N2. Cultures are kept in incubation chambers filled with the gas mixture. Subcultures are diluted to a parasitaemia of 0.1-0.5% and the medium changed daily.
Antimalarial activity is assessed using an adaptation of the procedures described by Desjardins et al. (Antimicrob. Agents Chemother. 16(6):710-8, 1979), and Matile and Pink (In: Lefkovits, I. and Pernis, B. (Eds.). Immunological Methods. Academic Press, San Diego, pp. 221-234, 1990).
After use the stocks are kept at −20° C. The compound is further diluted to the appropriate concentration using complete medium without hypoxanthine.
Assays are performed in sterile 96-well microtiter plates, each well containing 200 μl of parasite culture (0.15% parasitemia, 2.5% hematocrit) with or without serial drug solutions. Seven 2-fold dilutions are used covering a range from 5 μg/ml 0.078 μg/ml.
After 48 hours of incubation at 37° C., 0.5 μCi ^3H-hypoxanthine is added to each well. Cultures are incubated for a further 24 h before they are harvested onto glass-fiber filters and washed with distilled water. The radioactivity is counted using a Betaplate™ liquid scintillation counter (Wallac, Zurich, Switzerland). […] From the sigmoidal inhibition curves IC50 values are calculated.
K1 strain is used. The compounds are tested at 7 concentrations (5000 to 78 ng/ml). Artemisinin and chloroquine are included as reference drugs.
A new range of concentrations is chosen depending on the IC50 determined (e.g. 100 to 1.56 ng/ml) and the assay is carried out 2× independently.
The standard drugs are chloroquine and artemisinin which are run in the same assay.

The mark [3] stands for this setting: Plasmodium falciparum enzyme, read-out: Ki.

Like-named read-outs stand apart in the source and are kept apart here. Where only a bound is given, the exact number is not on record here.

Sequence of Leishmania dUTPase (O15826 entry or part of it): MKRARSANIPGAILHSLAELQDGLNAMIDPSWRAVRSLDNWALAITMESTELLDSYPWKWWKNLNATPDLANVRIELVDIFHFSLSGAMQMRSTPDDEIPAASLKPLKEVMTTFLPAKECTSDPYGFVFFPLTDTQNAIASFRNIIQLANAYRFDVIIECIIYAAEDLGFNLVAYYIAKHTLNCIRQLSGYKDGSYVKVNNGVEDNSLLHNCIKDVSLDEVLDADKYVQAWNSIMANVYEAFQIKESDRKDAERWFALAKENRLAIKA

For the compound `COc1ccc(C(OC[C@H]2O[C@@H](n3ccc(=O)[nH]c3=O)C[C@@H]2O)(c2ccccc2)c2ccc(OC)cc2)cc1` [5′-O-(4-4′-dimethoxytrityl)-2′-deoxyuridine], the “inhibition of Leishmania dUTPase” value on Leishmania dUTPase was “no inhibition”.

Consider `O=c1ccn(CCCCCNC(c2ccccc2)(c2ccccc2)c2ccccc2)c(=O)[nH]1`, for which the inhibitory constant (Ki) (commonly a measure of affinity in units of concentration, obtained from inhibition or displacement) in assay [1] (setting [3]) is 4290 nM. Also, in assay [2], the “SI (selectivity over the human enzyme)” value is listed as above 233. Besides, in the assay on P. falciparum, the EC50 was found to be 2200 nM.

Take `O=c1ccn([C@H]2C[C@H](O)[C@@H](COP(=O)(O)NP(=O)(O)OP(=O)(O)O)O2)c(=O)[nH]1` [α-β-imido-dUTP]: the “inhibition of Leishmania dUTPase” value on Leishmania dUTPase is “Competitive inhibition”.

Take `O=c1ccn(COCCOC(c2ccccc2)(c2ccccc2)c2ccccc2)c(=O)[nH]1`: the Ki in assay [1] is 670 nM. Moreover, in assay [2], the “SI (selectivity over the human enzyme)” value worked out at 25.3. Moreover, the EC50 in the assay on P. falciparum is 900 nM.

As to `O=c1ccn(CCCCNC(c2ccccc2)(c2ccccc2)c2ccccc2)c(=O)[nH]1`, the Ki in assay [1] (setting [3]) was 900 nM. In addition, the “SI (selectivity over the human enzyme)” value in assay [2] is 1111. Besides, in the assay on P. falciparum, the EC50 turned out to be 3800 nM.

In assay [1], `O=c1ccn(CCCCO[Si](c2ccccc2)(c2ccccc2)c2ccccc2)c(=O)[nH]1` showed an inhibitory constant (Ki) of 1690 nM. Further, the “SI (selectivity over the human enzyme)” value in assay [2] turned out to be 226. In addition, in the assay on P. falciparum, the EC50 amounted to 430 nM.

The compound `O=c1ccn(CCCCOC(c2ccccc2)(c2ccccc2)c2ccccc2)c(=O)[nH]1` came in with an inhibitory constant (Ki) in assay [1] of 1620 nM. In assay [2], the “SI (selectivity over the human enzyme)” value amounted to 617. The EC50 with P. falciparum is 4900 nM.
